Source: patent US4940723A, “Use of bis-(5-amidino-2-benzimidazolyl) methane (BABIM) to treat arthritis” (University of North Carolina, Chapel Hill, priority 1988, dated 1990)
Several values for one entry are separate records, joined by “and”; a condition that tells them apart may be missing. Identical values can stand only once.

Legend:
adjuvant arthritis = conditions: Sprague-Dawley rats; cited from earlier work
PG-APS-induced arthritis [1] = assay: Clinical scoring of PG-APS-induced arthritis; type: in vivo, Lewis rats
Procedure: (§1) Inbred female Lewis rats were purchased from Charles River Laboratories, Inc. Their mean body weight at the start of the study was 145 g. Arthritis was induced by a single intraperitoneal injection of the 10S fraction of purified cell wall material in PBS. The volume was 0.5 ml, and the dose of PG-APS was equivalent to 15 μg of rhamnose content per gram of body weight. For the administration of BABIM into the tail vein the animals were lightly anesthetized with ether. The inhibitor was contained in 0.1 ml of saline. Control animals were injected in the same way, but received saline only. All rats had free access to food and water. Nineteen days after the initiation of arthritis, they were killed with an overdose of ether.
Severity of the arthritis was judged daily for the first 11 days after PG-APS injection and every one to three days. Involvement of each extremity was quantified on a scale from 0-4, yielding a maximum combined score of 16. Grading was restricted to the wrist and ankle joints and all joints distal from there. The individual score was based on the number of joints involved, the degree of cutaneous erythema, the extent of the swelling of the skin and periarticular soft tissue, and the enlargement and deformities of the joints.
The basic design of the experiments was as follows. Arthritis was induced in two groups of rats by the intraperitoneal application of PG-APS fragments. One group of animals received repeated injections of BABIM dissolved in saline, while the other group received saline only. The inhibitor dose of 10 mg/kg body weight was selected because it has been found effective in preliminary studies.
(§2) The dosing with inhibitor was begun two days before the induction of arthritis and was continued on a daily basis through day 6. From

PG-APS-induced arthritis [2] = assay: Histological grading of the severity of PG-APS-induced arthritis (hind leg); type: in vivo, Lewis rats
Procedure: as §1
(§3) After the rats were killed, autopsies were performed. The liver, spleen, kidneys, adrenal glands, and the skinned distal hind legs were saved for further examination. The livers were weighed individually, and a sample of each was frozen and held for ELISA of PG-APS fragments. All other tissues were fixed in phosphate-buffered formalin solution. The bones were decalcified in formic acid-sodium citrate solution. Sections were stained with hematoxylin and eosin.
For this evaluation the hind legs were used because they were more severely involved than the front legs. Both hind legs were studied, but as the disease processes were always symmetrical only one leg was scored. Included in the histologic sections were the distal tibia with the ankle joint, the tarsal bones, and the metatarsals. These were ranked on a scale of 0-4, based on the extent of bone marrow hyperplasia, the density of neutrophilic infiltration in bone and soft tissues, the degree of destruction of trabecular and cortical bone, and the magnitude of the synovial and periosteal proliferative response.
as §2

[3] = test system: PG-APS induced granulomatous hepatitis; assay: Liver weight and hepatic granulomata (PG-APS-induced granulomatous hepatitis); type: in vivo, Lewis rats
Procedure: as §1, §3, §2

PG-APS deposits in liver = assay: Quantification of PG-APS deposits in liver tissue (ELISA); type: in vivo, Lewis rats
Procedure: Measurements were based on a solid-phase enzyme-linked immunosorbent assay (ELISA) as known in the art. Briefly, microtiter plates were charged with group A cell wall antibodies and non-specific binding sites were blocked with human albumin. The coated walls were interacted with the tissue samples, and retention of PG-APS was determined from phosphate hydrolysis following sequential addition of affinity-purified biotinylated cell wall antibodies, avidin-alkaline phosphatase complexes and enzyme substrate. Standard curves were prepared with various amounts of the 10S PG-APS material and were used to correlate enzyme activity with levels of tissue deposits.
as §1, with “of ether. […]” for “of ether.”

granulomatous splenitis = assay: Splenic granulomatous involvement (PG-APS-induced granulomatous splenitis); type: in vivo, Lewis rats
Procedure: as §1, §3, §2
*Disease was scored on a scale of 0-4, based on the percentage of
granulomatous replacement of splenic parenchyma, where 0 = none, 1 = <25%

[4] = Toxicity observation (physical, behavioral, organ histology) in BABIM-treated rats; type: in vivo, Lewis rats
Procedure: as §3, §2

[5] = Dissolution in isotonic saline; type: physicochemical
Procedure: BABIM was synthesized according to established procedures. Purity of the compound was ascertained by infrared and nuclear magnetic resonance spectroscopy, thin-layer chromatography and elemental analysis. […] Solutions were prepared fresh on the day they were used.

trypsin = conditions: in words; cited from earlier work
plasmin = conditions: in words; cited from earlier work
urokinase = conditions: in words; cited from earlier work
Clr = conditions: in words; cited from earlier work
Cls = conditions: in words; cited from earlier work
hemolytic complement = conditions: in words; cited from earlier work

For `N=C(N)c1ccc2cc(OC(=O)c3ccc(N=C(N)N)cc3)ccc2c1` [FUT-175], which “Influence on adjuvant arthritis” value (adjuvant arthritis) is on record?
The value was “beneficial influence”.

Which “Effect of 10 mg/kg dose in preliminary studies” value (PG-APS-induced arthritis [1]; 10 mg/kg body weight, preliminary studies) does the source give for `N=C(N)c1ccc2nc(Cc3nc4ccc(C(=N)N)cc4[nH]3)[nH]c2c1` [BABIM, bis-(5-amidino-2-benzimidazolyl) methane] here?
Its value is “effective”.

What about the “Suppression of clinical signs of arthritis” value (PG-APS-induced arthritis [1]; FIG. 1, initial response and recurrence, 10 mg/kg) of the same molecule?
Its value is “suppressed the clinical signs of arthritis dramatically”.

What about the “Relative suppression of arthritis versus hepatic and splenic granulomatous response” value (PG-APS-induced arthritis [1]; arthritis component compared with granulomata) of the same molecule?
Its value is “more effectively dealt with”.

What about the “Clinical score (individual animal)” value (PG-APS-induced arthritis [1]; individual BABIM-treated rats, final day (day 19), 10 mg/kg i.v. from day -2, scale 0-4 per extremity, maximum combined 16, 10 mg/kg) of the same molecule?
Its value is 0 and 1 and 2.

What about the “Treated rats completely free of arthritis at the initial peak” value (PG-APS-induced arthritis [1]; initial peak) of the same molecule?
Its value is 3 of the 7 treated rats.

And the “Clinical score, Mean ± SD” value (PG-APS-induced arthritis [1]; n=7, final day of experiment, P < 0.0001 versus vehicle (6.79 ± 2.86))?
Its value is 0.43 ± 0.79.

And the “Treated rats without symptoms during the recurrence” value (PG-APS-induced arthritis [1]; recurrence)?
Its value is “five”.

What about the “Blockade of recurrence of the disease” value (PG-APS-induced arthritis [1]; versus primary response) of the same molecule?
The value was “blocked as completely as the primary response”.

What about the “Bone marrow composition in calcaneus” value (PG-APS-induced arthritis [2]; FIG. 2B, day 19) of the same molecule?
The value was “Predominantly fatty marrow”.

And the “Inflammation of synovial recess of ankle joint” value (PG-APS-induced arthritis [2]; FIG. 4B, day 19)?
The value was “inflammation is absent”.

And the “Appearance of joints and bone marrow spaces” value (PG-APS-induced arthritis [2]; cell wall-injected and BABIM-treated Lewis rats)?
Its value is “pristine appearance”.

And the “BABIM-treated animals with complete absence of histological joint/bone abnormalities” value (PG-APS-induced arthritis [2]; day 19, FIGS. 2B, 3B, 4B)?
Its value is “five”.

What about the “Histologic score (individual animal)” value (PG-APS-induced arthritis [2]; individual BABIM-treated rats, day 19, scale 0-4, 10 mg/kg i.v., 10 mg/kg) of the same molecule?
The value was 0 and 1.5 and 1.

And the “Histologic score, Mean ± SD” value (PG-APS-induced arthritis [2]; n=7, day 19, P < 0.0001 versus vehicle (2.81 ± 0.46))?
The value was 0.36 ± 0.63.

What about the “Joint changes in the two BABIM-treated animals that developed joint disease” value (PG-APS-induced arthritis [2]; versus untreated rats) of the same molecule?
Its value is “on a much smaller scale”.

And the “Reduction in the number of hepatic granulomata” value ([3]; 0.5 cm^2 liver sections, versus untreated)?
Its value is “two-thirds”.

And the “Granulomata, No. per section, Mean ± SD” value ([3]; liver, 0.5 cm^2 sections, n=7, P < 0.005 versus vehicle (81.8 ± 34.5))?
Its value is 25.6 ± 26.3.

What about the “Percentage of centrally necrotic lesions” value ([3]; liver, both groups) of the same molecule?
The value was “approximately 50%”.

What about the “Granulomata, % with necrosis” value ([3]; liver, n=7, vehicle 56) of the same molecule?
Its value is 43%.

What about the “Weight of Liver, Mean ± SD” value ([3]; n=7, day 19, P < 0.002 versus vehicle (18.5 ± 3.8)) of the same molecule?
The value was 11.0 ± 3.5 gm.

What about the “Size and makeup of hepatic granulomata” value ([3]; versus untreated animals) of the same molecule?
Its value is “same size and makeup”.

What about the “PG-APS deposits, Mean ± SD” value (PG-APS deposits in liver; liver, n=7, vehicle 0.226 ± 0.072) of the same molecule?
Its value is 0.237 ± 0.055 mg.

What about the “Total amounts of PG-APS fragments deposited in liver” value (PG-APS deposits in liver; versus untreated animals) of the same molecule?
The value was “nearly the same”.

What about the “Inhibitor-treated animals with granulomatous inflammation in the spleen” value (granulomatous splenitis; all untreated rats affected) of the same molecule?
The value was “three”.

What about the “Splenic disease score, Mean ± SD” value (granulomatous splenitis; n=7, scale 0-4, not significantly different from vehicle 2.63 ± 1.3 (P > 0.2)) of the same molecule?
Its value is 1.71 ± 1.5.

And the “BABIM recipients rated the highest splenic grade (score of 4)” value (granulomatous splenitis; rat, in vivo)?
The value was “three”.

And the “BABIM recipients with no splenic disease” value (granulomatous splenitis; rat, in vivo)?
The value was “four”.

What about the “Physical or behavioral abnormalities caused by the drug” value ([4]; 10 mg/kg, repeated i.v. injections) of the same molecule?
Its value is “None of the recipients of BABIM showed any physical or behavioral abnormalities”.

And the “BABIM related toxicity, histological examination” value ([4]; liver, kidney, adrenal glands, and spleen)?
The value was “absence of BABIM related toxicity”.

And the “Solubility in isotonic saline” value [5]?
Its value is “easily dissolved”.

What about the Trypsin inhibition (trypsin) of the same molecule?
The Trypsin inhibition was “potent inhibitor”.

And the Plasmin inhibition (plasmin)?
Its Plasmin inhibition is “potent inhibitor”.

What about the Urokinase inhibition (urokinase) of the same molecule?
The Urokinase inhibition was “potent inhibitor”.

And the “Inhibition in assays of Clr” value (Clr)?
The value was “only weakly inhibitory”.

What about the “Inhibition in assays of Cls” value (Cls) of the same molecule?
Its value is “only weakly inhibitory”.

What about the “Inhibition in hemolytic complement tests” value (hemolytic complement) of the same molecule?
Its value is “only weakly inhibitory”.
